We go through one substance from paper PMC3741113, “De-Novo Design of Antimicrobial Peptides for Plant Protection” (PLoS ONE, 2013).

One series has as its system Pseudomonas corrugata. To be noted: LB-medium, about 10^5 CFU/ml, 27°C, 1–2d, OD590 nm; at least two independent replicates.
The test system of series [1] is Arabidopsis mesophyll protoplasts. In words: Phytotoxicity on plant protoplasts. Format: cell-based. To be noted: concentrations up to 100 µg/ml. How it is done: Phytotoxicity was measured on Arabidopsis mesophyll protoplasts prepared from leaves as described in [80]. 80 µl protoplast suspension containing about 5000 protoplasts were incubated with 20 µl peptide solution. Final peptide concentrations were 0, 10, 100 and 200 µg/ml. The phytotoxic effect of antimicrobial peptides was observed after 1 h with a light microscope. Hints to cell death are loss of spherical shape, chloroplast release and/or agglomeration of protoplasts.

Series [2] relates to Pectobacterium carotovorum ssp. carotovorum. Conditions: LB-medium, about 10^5 CFU/ml, 27°C, 1–2d, OD590 nm; at least two independent replicates.
For series [3], the system named is Clavibacter michiganensis ssp. michiganensis. Conditions: LB-medium, about 10^5 CFU/ml, 27°C, 1–2d, OD590 nm; at least two independent replicates.
Another series concerns Alternaria alternata. Conditions: 2% malt extract medium, 1.5–2×10^3 spores/ml, room temperature, 3d, OD590 nm; lowest concentration with no visible growth; at least two independent replicates.
A further series relates to Botrytis cinerea. To be noted: 2% malt extract medium, 1.5–2×10^3 spores/ml, room temperature, 3d, visual screening; lowest concentration with no visible growth; at least two independent replicates.
Another series deals with C. herbarum. In words: Peptide spraying on inoculated tomato leaves, fungal growth. To be noted: 5 µg/ml peptide sprayed 22 h after inoculation (10^4 spores/ml); fungal DNA by RT-PCR. It counts as in vivo, C. herbarum on tomato (Microtom). How it is done:
To determine antifungal activity of AMPs four week old tomato plants (Microtom) were inoculated with fungal spores using an aerosol can. Spores were harvested by washing sporulating plate-grown fungi (A. alternata and C. herbarum) with 62.5 mM KH2PO4 (pH 6.0) supplemented with 5.5 mM glucose and 0.1% Tween-20. One leaf per plant (three plants per treatment) was sprayed adaxial and abaxial with 500 µl spore suspension (10^4 spores/ml). In this way approximately 100 µl spore suspension was applied directly onto the plant surface. Plants were covered with a plastic cap to guarantee high humidity and incubated at 20°C. After two hours the T0 tissue sample was collected. AMPs were sprayed onto the leaf surface 22 h after inoculation. Leaves were harvested 24 h and 48 h after peptide treatment. Frozen material was homogenized in liquid nitrogen and fungal DNA was isolated. Quantification of fungal DNA content was done by qRT-PCR amplifying the nuclear encoded ribosomal internal transcribed spacer (ITS) regions. ITS1-forward and ITS4-reverse primers were used at an annealing temperature of 60°C: For A. alternata: ITS1-Alt-for, 5′-[…]-3′ and ITS4_Alt-rev, 5′-[…]-3′ and for C. herbarum: ITS1-Cla-for 5′-[…]-3′ and ITS4-Cla-rev, 5′-[…]-3′ (synthesized by metabion, Munich, Germany). […] Differences between the mean values were analysed using an unpaired t-test analysis of variance.

The subject of series [4] is Pseudomonas syringae pv. tomato. To be noted: LB-medium, about 10^5 CFU/ml, 27°C, 1–2d, OD590 nm; at least two independent replicates.
In a further series the test system is Xanthomonas vesicatoria. To be noted: LB-medium, about 10^5 CFU/ml, 27°C, 1–2d, OD590 nm; at least two independent replicates.
For a further series, the system named is Cladosporium herbarum. To be noted: 2% malt extract medium, 1.5–2×10^3 spores/ml, room temperature, 3d, visual screening; lowest concentration with no visible growth; at least two independent replicates.

Some results are limits rather than exact numbers.

In general, MIC refers to the lowest concentration found to suppress growth. A higher MIC goes with a need for much substance.

Turning to KRRLIARILRLAARALVKKR-NH2 [SP13-D], the MIC was 40 µg/mL against Pseudomonas corrugata; more than 40 µg/mL in [2]; 10 µg/mL in [3]; 20 µg/mL against Alternaria alternata; more than 40 µg/mL against Botrytis cinerea; 1 µg/mL in series [4]. Besides, the figures for the MIC with Xanthomonas vesicatoria and against Cladosporium herbarum were 2 µg/mL and 5 µg/mL, respectively. In addition, the “phytotoxicity (in words)” value in series [1] is on record as “no phytotoxicity”. The “growth inhibition on tomato leaves” value with C. herbarum was “More than 80%”.
